Patent EP4745135A1 (Gluetacs Therapeutics (Shanghai) Co., Ltd., priority 2023, dated 2025)

Key:
GSPT1 = experiment: Western blot, degradation of substrate protein in hPBMCs; assay type: cell-based, Human; settings: Western blot, 24 hours of compound treatment, compounds tested at 50 nM and 500 nM (concentration for the table not stated)
IKZF2 = molecular target: T1, IKZF2 (Homo sapiens, UniProt Q96SW2+Q9UKS7); experiment: as above; assay type: cell-based; settings: Western blot, 24 hours of compound treatment, compounds tested at 50 nM and 500 nM (concentration for the table not stated)
T1 construct: effects of the compounds of the present disclosure on the expression of target proteins in cells; endogenous in cells; host or cells: human PBMCs (Milecell Biotechnologies)

IKZF3 = molecular target: T2, IKZF3 (Homo sapiens, UniProt Q96SW2+Q9UKT9); experiment: as above; assay type: cell-based; settings: Western blot, 24 hours of compound treatment, compounds tested at 50 nM and 500 nM (concentration for the table not stated)
T2 construct: effects of the compounds of the present disclosure on the expression of target proteins in cells; endogenous in cells; host or cells: human PBMCs (Milecell Biotechnologies)

WEE1 = molecular target: T3, WEE1 (Homo sapiens, UniProt P30291+Q96SW2); experiment: as above; assay type: cell-based; settings: Western blot, 24 hours of compound treatment, compounds tested at 50 nM and 500 nM (concentration for the table not stated)
T3 construct: effects of the compounds of the present disclosure on the expression of target proteins in cells; endogenous in cells; host or cells: human PBMCs (Milecell Biotechnologies)

CK1α = molecular target: T4, CK1α (Homo sapiens, UniProt P48729+Q96SW2); experiment: as above; assay type: cell-based; settings: Western blot, 24 hours of compound treatment, compounds tested at 50 nM and 500 nM (concentration for the table not stated)
T4 construct: effects of the compounds of the present disclosure on the expression of target proteins in cells; endogenous in cells; host or cells: human PBMCs (Milecell Biotechnologies)

IKZF1 = molecular target: T5, IKZF1 (Homo sapiens, UniProt Q13422+Q96SW2); experiment: as above; assay type: cell-based; settings: Western blot, 24 hours of compound treatment, compounds tested at 50 nM and 500 nM (concentration for the table not stated)
T5 construct: effects of the compounds of the present disclosure on the expression of target proteins in cells; endogenous in cells; host or cells: human PBMCs (Milecell Biotechnologies)

[1] = molecular target: T6, human Cereblon WT GST-tagged protein (Homo sapiens, UniProt Q96SW2); experiment: CRBN-binding affinity, HTRF (CEREBLON BINDING kit); settings: for inhibition at 0.5 µM: read-out: Inhibition Rate at 0.5 µM (%); for inhibition at 2 µM: read-out: Inhibition Rate at 2 µM (%)
T6 construct: purchased CISBIO 64BDCRBNPEH
T6 sequence (Q96SW2 whole entry): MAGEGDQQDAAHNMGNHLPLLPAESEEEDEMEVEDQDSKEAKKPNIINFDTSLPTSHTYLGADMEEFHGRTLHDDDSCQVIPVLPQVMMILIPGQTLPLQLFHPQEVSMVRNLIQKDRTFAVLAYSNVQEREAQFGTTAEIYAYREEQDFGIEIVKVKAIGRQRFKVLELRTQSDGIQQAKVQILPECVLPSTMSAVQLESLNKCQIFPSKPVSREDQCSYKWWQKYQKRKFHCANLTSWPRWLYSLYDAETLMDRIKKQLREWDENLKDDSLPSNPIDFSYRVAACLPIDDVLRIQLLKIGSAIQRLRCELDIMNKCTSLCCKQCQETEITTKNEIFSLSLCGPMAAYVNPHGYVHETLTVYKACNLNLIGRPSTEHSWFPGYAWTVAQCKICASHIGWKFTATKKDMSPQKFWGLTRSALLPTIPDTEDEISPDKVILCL

T3 sequence (P30291 whole entry): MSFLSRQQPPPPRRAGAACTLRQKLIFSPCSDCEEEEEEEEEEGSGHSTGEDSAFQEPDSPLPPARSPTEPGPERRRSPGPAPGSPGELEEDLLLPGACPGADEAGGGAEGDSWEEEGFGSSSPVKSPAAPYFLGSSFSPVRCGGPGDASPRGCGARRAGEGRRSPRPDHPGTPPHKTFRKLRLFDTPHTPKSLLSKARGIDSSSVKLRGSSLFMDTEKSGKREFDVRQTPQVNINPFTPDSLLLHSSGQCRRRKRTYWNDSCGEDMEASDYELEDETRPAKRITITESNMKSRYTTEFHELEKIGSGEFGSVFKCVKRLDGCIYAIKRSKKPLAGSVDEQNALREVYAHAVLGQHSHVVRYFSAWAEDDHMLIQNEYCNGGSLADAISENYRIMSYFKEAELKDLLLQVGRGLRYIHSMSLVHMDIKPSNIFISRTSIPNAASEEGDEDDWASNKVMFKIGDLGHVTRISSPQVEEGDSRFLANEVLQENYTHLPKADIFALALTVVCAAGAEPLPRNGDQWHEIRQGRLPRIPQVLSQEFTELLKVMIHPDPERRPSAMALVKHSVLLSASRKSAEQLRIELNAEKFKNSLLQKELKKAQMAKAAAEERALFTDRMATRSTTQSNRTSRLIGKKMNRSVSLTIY
T3 sequence (Q96SW2 whole entry): as the sequence (Q96SW2 whole entry) above
T3 sequence (Q16531 whole entry partner): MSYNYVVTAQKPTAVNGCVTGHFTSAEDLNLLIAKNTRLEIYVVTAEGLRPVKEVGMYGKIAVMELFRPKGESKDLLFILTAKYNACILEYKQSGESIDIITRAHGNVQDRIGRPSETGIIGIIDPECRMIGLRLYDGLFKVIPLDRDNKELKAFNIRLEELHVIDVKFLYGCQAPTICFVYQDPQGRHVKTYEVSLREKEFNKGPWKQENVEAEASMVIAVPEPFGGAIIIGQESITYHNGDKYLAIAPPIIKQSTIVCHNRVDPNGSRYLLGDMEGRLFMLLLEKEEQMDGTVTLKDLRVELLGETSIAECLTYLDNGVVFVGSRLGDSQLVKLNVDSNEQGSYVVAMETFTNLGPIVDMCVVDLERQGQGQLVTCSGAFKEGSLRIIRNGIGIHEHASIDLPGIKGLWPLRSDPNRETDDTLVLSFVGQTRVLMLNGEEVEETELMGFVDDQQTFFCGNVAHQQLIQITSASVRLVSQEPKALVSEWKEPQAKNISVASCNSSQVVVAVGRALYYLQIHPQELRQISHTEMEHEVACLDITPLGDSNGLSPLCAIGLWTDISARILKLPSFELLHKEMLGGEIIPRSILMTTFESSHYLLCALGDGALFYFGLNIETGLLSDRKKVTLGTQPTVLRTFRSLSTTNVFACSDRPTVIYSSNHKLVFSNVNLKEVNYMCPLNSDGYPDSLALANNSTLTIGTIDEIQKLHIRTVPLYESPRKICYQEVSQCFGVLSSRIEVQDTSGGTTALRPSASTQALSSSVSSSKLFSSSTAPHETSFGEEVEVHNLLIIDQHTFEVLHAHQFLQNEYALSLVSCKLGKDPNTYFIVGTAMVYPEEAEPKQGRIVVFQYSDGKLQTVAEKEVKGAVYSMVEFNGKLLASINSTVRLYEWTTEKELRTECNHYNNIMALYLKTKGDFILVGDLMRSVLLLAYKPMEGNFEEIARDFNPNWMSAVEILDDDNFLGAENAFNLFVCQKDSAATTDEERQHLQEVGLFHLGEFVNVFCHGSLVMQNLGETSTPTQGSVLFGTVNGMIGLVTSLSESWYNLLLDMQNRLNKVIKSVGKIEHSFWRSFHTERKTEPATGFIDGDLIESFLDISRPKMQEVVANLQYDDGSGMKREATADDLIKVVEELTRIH
T5 sequence (Q13422 whole entry): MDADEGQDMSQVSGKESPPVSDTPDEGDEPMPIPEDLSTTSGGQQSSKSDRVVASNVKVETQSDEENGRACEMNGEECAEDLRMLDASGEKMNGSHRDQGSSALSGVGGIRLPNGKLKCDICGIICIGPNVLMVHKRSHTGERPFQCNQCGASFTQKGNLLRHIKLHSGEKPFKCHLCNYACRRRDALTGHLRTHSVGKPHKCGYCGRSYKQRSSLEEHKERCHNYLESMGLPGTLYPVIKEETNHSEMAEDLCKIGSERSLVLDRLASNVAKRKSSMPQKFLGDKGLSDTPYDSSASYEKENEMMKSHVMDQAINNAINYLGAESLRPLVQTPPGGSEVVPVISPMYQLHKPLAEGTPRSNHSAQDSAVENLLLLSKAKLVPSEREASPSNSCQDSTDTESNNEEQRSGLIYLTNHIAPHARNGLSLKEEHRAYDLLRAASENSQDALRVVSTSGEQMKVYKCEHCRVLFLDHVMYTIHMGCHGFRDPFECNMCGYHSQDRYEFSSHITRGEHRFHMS
T5 sequence (Q96SW2 whole entry): as the sequence (Q96SW2 whole entry) above
T5 sequence (Q16531 whole entry partner): as the sequence (Q16531 whole entry partner) above
T1 sequence (Q9UKS7 whole entry): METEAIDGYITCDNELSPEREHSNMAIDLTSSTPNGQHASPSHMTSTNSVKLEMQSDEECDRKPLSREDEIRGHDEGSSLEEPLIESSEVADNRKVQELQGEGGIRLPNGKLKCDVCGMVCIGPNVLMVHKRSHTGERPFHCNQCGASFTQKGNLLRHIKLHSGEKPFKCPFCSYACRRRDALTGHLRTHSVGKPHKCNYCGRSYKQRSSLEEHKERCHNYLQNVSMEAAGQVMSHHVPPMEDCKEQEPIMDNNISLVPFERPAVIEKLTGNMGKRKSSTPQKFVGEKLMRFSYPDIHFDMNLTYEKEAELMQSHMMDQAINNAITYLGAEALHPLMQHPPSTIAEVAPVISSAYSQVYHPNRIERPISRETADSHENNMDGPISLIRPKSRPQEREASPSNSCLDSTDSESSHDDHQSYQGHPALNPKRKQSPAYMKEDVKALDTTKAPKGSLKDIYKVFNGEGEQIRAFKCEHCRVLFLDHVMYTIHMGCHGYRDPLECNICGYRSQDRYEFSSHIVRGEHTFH
T1 sequence (Q96SW2 whole entry): as the sequence (Q96SW2 whole entry) above
T1 sequence (Q16531 whole entry partner): as the sequence (Q16531 whole entry partner) above
T4 sequence (P48729 whole entry): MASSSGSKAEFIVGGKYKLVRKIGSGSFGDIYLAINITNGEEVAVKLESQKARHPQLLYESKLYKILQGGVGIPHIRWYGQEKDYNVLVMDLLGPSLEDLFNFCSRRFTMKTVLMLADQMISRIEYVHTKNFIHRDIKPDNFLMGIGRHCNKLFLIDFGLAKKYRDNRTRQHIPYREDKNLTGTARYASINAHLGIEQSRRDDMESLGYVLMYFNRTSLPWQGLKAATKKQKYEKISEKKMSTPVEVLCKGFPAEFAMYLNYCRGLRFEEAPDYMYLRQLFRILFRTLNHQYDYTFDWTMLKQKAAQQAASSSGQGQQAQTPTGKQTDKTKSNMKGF
T4 sequence (Q96SW2 whole entry): as the sequence (Q96SW2 whole entry) above
T4 sequence (Q16531 whole entry partner): as the sequence (Q16531 whole entry partner) above
T2 sequence (Q9UKT9 whole entry): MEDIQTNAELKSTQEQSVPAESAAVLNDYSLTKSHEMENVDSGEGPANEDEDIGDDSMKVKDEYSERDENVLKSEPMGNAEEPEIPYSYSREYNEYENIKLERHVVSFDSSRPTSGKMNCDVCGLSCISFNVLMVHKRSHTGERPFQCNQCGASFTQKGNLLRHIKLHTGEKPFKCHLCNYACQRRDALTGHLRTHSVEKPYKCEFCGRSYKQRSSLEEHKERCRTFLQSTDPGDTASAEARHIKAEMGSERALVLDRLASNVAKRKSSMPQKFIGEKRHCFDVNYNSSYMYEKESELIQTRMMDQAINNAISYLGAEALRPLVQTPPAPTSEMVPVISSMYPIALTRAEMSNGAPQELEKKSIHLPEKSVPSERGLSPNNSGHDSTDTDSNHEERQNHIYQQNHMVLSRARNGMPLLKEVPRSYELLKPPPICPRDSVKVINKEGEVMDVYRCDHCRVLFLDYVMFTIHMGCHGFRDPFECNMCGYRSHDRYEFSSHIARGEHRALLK
T2 sequence (Q96SW2 whole entry): as the sequence (Q96SW2 whole entry) above
T2 sequence (Q16531 whole entry partner): as the sequence (Q16531 whole entry partner) above

| inhibition at 0.5 µM [1] | inhibition at 2 µM [1] | SMILES | GSPT1 substrate protein remaining % (GSPT1) | IKZF2 substrate protein remaining % (IKZF2) | IKZF3 substrate protein remaining % (IKZF3) | Wee1 substrate protein remaining % (WEE1) | CK1α substrate protein remaining % (CK1α) | IKZF 1 substrate protein remaining % (IKZF1) |
| --- | --- | --- | --- | --- | --- | --- | --- | --- |
| 60 to 80% | 80 to 100% | O=C1CCC(N2Cc3cc(CN4CCN(c5ccccn5)CC4)ccc3C2=S)C(=O)N1 (stereo not shown) [GT-09216, 3-(5-((4-(pyridin-2-yl)piperazin-1-yl)methyl)-1-thioxoisoindolin-2-yl)piperidine-2,6-dione] | A (0% ≤ substrate protein remaining % ≤ 80%) | B (80%< substrate protein remaining %≤ 100%) | B (80%< substrate protein remaining %≤ 100%) | B (80%< substrate protein remaining %≤ 100%) | B (80%< substrate protein remaining %≤ 100%) | B (80%< substrate protein remaining %≤ 100%) |
| 80 to 100% | 80 to 100% | O=C1CCC(N2Cc3cc(CN4CCN(c5cccc(F)n5)CC4)ccc3C2=S)C(=O)N1 (stereo not shown) [GT-09221, 3-(5-((4-(6-fluoropyridin-2-yl)piperazin-1-yl)methyl)-1-thioxoisoindolin-2-yl)piperidine-2,6-dione] | B (80%< substrate protein remaining %≤ 100%) | B (80%< substrate protein remaining %≤ 100%) | B (80%< substrate protein remaining %≤ 100%) | A (0% ≤ substrate protein remaining % ≤ 80%) | B (80%< substrate protein remaining %≤ 100%) | A (0% ≤ substrate protein remaining % ≤ 80%) |
| 60 to 80% | 80 to 100% | O=C1CCC(N2Cc3cc(CN4CCN(c5ccc(F)cn5)CC4)ccc3C2=S)C(=O)N1 (stereo not shown) [GT-09222, 3-(5-((4-(5-fluoropyridin-2-yl)piperazin-1-yl)methyl)-1-thioxoisoindolin-2-yl)piperidine-2,6-dione] | B (80%< substrate protein remaining %≤ 100%) | B (80%< substrate protein remaining %≤ 100%) | B (80%< substrate protein remaining %≤ 100%) | A (0% ≤ substrate protein remaining % ≤ 80%) | B (80%< substrate protein remaining %≤ 100%) | A (0% ≤ substrate protein remaining % ≤ 80%) |
| 60 to 80% | 80 to 100% | O=C1CCC(N2Cc3cc(CN4CCN(c5ncccc5C(F)(F)F)CC4)ccc3C2=S)C(=O)N1 (stereo not shown) [GT-09223, 3-(1-thioxo-5-((4-(3-(trifluoromethyl)pyridin-2-yl)piperazin-1-yl)methyl)isoindolin-2-yl)piperidine-2,6-dione] | B (80%< substrate protein remaining %≤ 100%) | B (80%< substrate protein remaining %≤ 100%) | B (80%< substrate protein remaining %≤ 100%) | A (0% ≤ substrate protein remaining % ≤ 80%) | A (0% ≤ substrate protein remaining % ≤ 80%) | B (80%< substrate protein remaining %≤ 100%) |
| 60 to 80% | 80 to 100% | O=C1CCC(N2Cc3cc(CN4CCN(c5ccc(C(F)(F)F)cn5)CC4)ccc3C2=S)C(=O)N1 (stereo not shown) [GT-09225, 3-(1-thioxo-5-((4-(5-(trifluoromethyl)pyridin-2-yl)piperazin-1-yl)methyl)isoindolin-2-yl)piperidine-2,6-dione] | A (0% ≤ substrate protein remaining % ≤ 80%) | B (80%< substrate protein remaining %≤ 100%) | A (0% ≤ substrate protein remaining % ≤ 80%) | B (80%< substrate protein remaining %≤ 100%) | A (0% ≤ substrate protein remaining % ≤ 80%) | B (80%< substrate protein remaining %≤ 100%) |

The next lines start with the compound.

| SMILES | inhibition at 0.5 µM [1] | inhibition at 2 µM [1] | GSPT1 substrate protein remaining % (GSPT1) | IKZF2 substrate protein remaining % (IKZF2) | IKZF3 substrate protein remaining % (IKZF3) | Wee1 substrate protein remaining % (WEE1) | CK1α substrate protein remaining % (CK1α) | IKZF 1 substrate protein remaining % (IKZF1) |
| --- | --- | --- | --- | --- | --- | --- | --- | --- |
| O=C1CCC(N2Cc3cc(CN4CCN(c5cc(Cl)ccn5)CC4)ccc3C2=S)C(=O)N1 (stereo not shown) [GT-09218, 3-(5-((4-(4-chloropyridin-2-yl)piperazin-1-yl)methyl)-1-thioxoisoindolin-2-yl)piperidine-2,6-dione] | 60 to 80% | 80 to 100% | A (0% ≤ substrate protein remaining % ≤ 80%) | B (80%< substrate protein remaining %≤ 100%) | B (80%< substrate protein remaining %≤ 100%) | B (80%< substrate protein remaining %≤ 100%) | B (80%< substrate protein remaining %≤ 100%) | B (80%< substrate protein remaining %≤ 100%) |
| O=C1CCC(N2Cc3cc(CN4CCN(c5ncccc5Cl)CC4)ccc3C2=S)C(=O)N1 (stereo not shown) [GT-09219, 3-(5-((4-(3-chloropyridin-2-yl)piperazin-1-yl)methyl)-1-thioxoisoindolin-2-yl)piperidine-2,6-dione] | 60 to 80% | 80 to 100% | A (0% ≤ substrate protein remaining % ≤ 80%) | A (0% ≤ substrate protein remaining % ≤ 80%) | B (80%< substrate protein remaining %≤ 100%) | B (80%< substrate protein remaining %≤ 100%) | B (80%< substrate protein remaining %≤ 100%) | B (80%< substrate protein remaining %≤ 100%) |
| O=C1CCC(N2Cc3cc(CN4CCN(c5nccc(I)c5F)CC4)ccc3C2=S)C(=O)N1 (stereo not shown) [GT-09227, 3-(5-((4-(3-fluoro-4-iodopyridin-2-yl)piperazin-1-yl)methyl)-1-thioxoisoindolin-2-yl)piperidine-2,6-dione] | 60 to 80% | 80 to 100% | A (0% ≤ substrate protein remaining % ≤ 80%) | B (80%< substrate protein remaining %≤ 100%) | B (80%< substrate protein remaining %≤ 100%) | B (80%< substrate protein remaining %≤ 100%) | A (0% ≤ substrate protein remaining % ≤ 80%) | B (80%< substrate protein remaining %≤ 100%) |
